Measured values from ChEMBL document CHEMBL1201862, “PubChem BioAssay data set” (2004).
Activity calls are given as the source filed them.

Key:
Kallikrein-7 = Kallikrein-7 (Homo sapiens, UniProt P49862); assay: Fluorescence Intensity-based biochemical primary high throughput dose response assay to identify activators of kallikrein-7 (K7) zymogen.
[1] = molecular target: T1, Oxysterols receptor LXR-beta (Homo sapiens, UniProt P55055); type: functional, cell-based;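 also: Cell-based luminescence dose-response assay of agonist activity at LXR, run as a confirmatory counterscreen to a daf-12 agonist screen; HEK293 cells with Gal4-LXR fusion and GAL4-driven luciferase reporter; agonist potency from rising luciferase signal of a Gal4-LXR reporter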
T1 sequence (P55055 whole entry): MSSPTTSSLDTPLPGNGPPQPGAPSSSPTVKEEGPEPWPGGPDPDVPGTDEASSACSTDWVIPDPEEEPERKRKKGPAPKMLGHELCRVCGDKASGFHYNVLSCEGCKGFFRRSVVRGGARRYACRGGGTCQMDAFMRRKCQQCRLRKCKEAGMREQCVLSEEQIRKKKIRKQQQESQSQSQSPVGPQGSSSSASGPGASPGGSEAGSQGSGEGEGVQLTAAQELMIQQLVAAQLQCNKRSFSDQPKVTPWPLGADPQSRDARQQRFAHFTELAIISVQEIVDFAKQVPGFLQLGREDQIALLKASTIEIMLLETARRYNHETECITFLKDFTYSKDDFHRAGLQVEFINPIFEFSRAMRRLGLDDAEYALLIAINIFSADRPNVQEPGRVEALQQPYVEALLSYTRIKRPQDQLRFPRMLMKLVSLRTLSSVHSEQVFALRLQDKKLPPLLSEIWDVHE

[2] = molecular target: T2, RNA-binding protein pos-1 (Caenorhabditis elegans, UniProt G5EF15); assay: inhibitors of POS-1/mex-3 RNA binding, dose response, biochemical, fluorescence polarization (AID 1964);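 also: purified POS-1 fused to maltose binding protein made in E. coli; potency of compounds blocking POS-1 binding to fluorescent RNA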
T2 sequence (G5EF15 whole entry): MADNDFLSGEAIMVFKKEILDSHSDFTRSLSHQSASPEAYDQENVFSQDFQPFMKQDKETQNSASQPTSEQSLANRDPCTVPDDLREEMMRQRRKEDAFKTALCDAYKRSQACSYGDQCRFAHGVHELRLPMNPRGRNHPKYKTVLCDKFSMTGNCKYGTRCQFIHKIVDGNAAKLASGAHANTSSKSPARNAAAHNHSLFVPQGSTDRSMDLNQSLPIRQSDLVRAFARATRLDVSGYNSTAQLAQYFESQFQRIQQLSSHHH

Bcl-2-like protein 10 = molecular target: T3, Bcl-2-like protein 10 (Homo sapiens, UniProt Q9HD36); assay: displacers of TR3 peptide from Bcl-B, primary screen, selectivity assay for Bfl-1 inhibitor project, biochemical, fluorescence polarization, FITC-TR3 peptide (AID 748);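 also: fluorescence polarization from a fluorescein-labelled TR3 peptide binding purified Bcl-B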
T3 sequence (Q9HD36 whole entry): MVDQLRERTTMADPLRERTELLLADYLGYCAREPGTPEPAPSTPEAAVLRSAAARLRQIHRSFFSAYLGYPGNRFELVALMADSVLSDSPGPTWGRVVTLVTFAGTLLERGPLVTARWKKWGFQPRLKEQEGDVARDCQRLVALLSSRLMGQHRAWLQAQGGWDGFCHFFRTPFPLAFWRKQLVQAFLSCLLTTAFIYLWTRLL

[3] = molecular target: T4, Zinc finger protein mex-5 (Caenorhabditis elegans, UniProt Q9XUB2); assay: MEX-5/TCR-2 RNA interaction inhibitors, dose response, biochemical, C. elegans, fluorescence polarization (AID 1960)
T4 sequence (Q9XUB2 whole entry): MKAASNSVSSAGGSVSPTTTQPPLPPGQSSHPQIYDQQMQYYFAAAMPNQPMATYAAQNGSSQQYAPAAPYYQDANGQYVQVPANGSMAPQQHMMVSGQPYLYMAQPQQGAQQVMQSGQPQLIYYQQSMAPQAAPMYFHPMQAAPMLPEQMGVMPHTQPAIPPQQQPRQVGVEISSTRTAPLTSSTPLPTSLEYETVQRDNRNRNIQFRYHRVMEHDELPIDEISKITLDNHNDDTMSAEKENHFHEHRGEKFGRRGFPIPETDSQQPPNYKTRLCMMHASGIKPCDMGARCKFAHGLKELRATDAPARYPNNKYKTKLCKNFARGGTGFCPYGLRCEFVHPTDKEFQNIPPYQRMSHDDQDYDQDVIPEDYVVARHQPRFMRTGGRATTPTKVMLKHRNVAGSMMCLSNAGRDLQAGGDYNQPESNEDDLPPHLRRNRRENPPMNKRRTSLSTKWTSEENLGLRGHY

Estrogen receptor beta = Estrogen receptor beta (Homo sapiens, UniProt Q92731); assay: ERβ–SRC-3 coactivator interaction inhibitors, confirmation, orthogonal assay, biochemical, ELISA, streptavidin-HRP readout (AID 1060)
Estrogen receptor beta, sequence (Q92731 whole entry): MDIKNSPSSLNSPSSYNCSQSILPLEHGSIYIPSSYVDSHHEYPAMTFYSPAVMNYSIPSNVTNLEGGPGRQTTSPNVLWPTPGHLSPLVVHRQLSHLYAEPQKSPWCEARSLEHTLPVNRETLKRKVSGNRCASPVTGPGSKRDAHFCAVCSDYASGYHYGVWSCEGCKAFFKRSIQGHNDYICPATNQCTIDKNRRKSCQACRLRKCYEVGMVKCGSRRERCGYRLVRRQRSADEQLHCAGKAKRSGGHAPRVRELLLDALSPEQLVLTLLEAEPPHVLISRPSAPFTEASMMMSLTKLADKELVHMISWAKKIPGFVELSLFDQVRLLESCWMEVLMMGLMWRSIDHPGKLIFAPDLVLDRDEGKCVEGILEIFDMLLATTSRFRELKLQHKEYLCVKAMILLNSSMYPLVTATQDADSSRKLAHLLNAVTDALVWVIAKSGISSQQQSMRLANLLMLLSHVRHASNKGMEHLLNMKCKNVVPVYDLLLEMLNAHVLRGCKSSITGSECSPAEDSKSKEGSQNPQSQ

[4] = molecular target: Bifunctional protein GlmU (Mycobacterium tuberculosis, UniProt P9WMN3); assay: Inhibitors of Mycobacterial Glucosamine-1-phosphate acetyl transferase (GlmU). Secondary screen.; set-up: species or system Mycobacterium tuberculosis H37Rv
Bifunctional protein GlmU, sequence (P9WMN3 whole entry): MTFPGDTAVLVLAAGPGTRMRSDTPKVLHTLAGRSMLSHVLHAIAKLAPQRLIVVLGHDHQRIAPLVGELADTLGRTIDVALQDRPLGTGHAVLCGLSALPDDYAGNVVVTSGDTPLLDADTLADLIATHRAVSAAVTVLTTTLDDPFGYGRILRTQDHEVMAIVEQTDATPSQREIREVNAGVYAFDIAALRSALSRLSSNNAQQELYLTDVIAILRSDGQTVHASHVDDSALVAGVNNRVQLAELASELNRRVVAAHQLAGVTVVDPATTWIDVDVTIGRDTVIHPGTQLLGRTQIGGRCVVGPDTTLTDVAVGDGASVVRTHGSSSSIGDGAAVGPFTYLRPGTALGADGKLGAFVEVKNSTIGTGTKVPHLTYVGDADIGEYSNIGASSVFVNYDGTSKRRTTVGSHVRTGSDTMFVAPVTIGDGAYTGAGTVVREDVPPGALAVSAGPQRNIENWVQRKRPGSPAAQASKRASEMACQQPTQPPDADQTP

[5] = molecular target: T5, Dual specificity protein phosphatase 6 (Rattus norvegicus, UniProt Q64346); assay: MKP-3 phosphatase inhibitors, primary screen, biochemical, rat enzyme, in vitro (AID 425)
T5 sequence (Q64346 whole entry): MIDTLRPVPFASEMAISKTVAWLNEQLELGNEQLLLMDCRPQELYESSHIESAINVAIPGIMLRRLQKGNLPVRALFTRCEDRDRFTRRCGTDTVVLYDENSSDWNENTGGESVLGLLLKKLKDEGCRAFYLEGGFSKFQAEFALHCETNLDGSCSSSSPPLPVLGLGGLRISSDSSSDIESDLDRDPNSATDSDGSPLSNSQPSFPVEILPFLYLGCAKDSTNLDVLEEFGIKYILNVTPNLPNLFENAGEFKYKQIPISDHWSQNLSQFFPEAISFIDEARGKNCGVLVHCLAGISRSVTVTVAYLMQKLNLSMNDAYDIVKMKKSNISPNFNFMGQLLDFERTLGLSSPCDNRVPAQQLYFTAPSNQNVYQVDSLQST

[6] = molecular target: T6, Carboxy-terminal domain RNA polymerase II polypeptide A small phosphatase 1 (Homo sapiens, UniProt Q9GZU7); assay: inhibitors of CTDSP1, concentration-response testing, biochemical assay, absorbance-based, actives from ultra-high-throughput screening (AID 540297); type: functional
T6 sequence (Q9GZU7 whole entry): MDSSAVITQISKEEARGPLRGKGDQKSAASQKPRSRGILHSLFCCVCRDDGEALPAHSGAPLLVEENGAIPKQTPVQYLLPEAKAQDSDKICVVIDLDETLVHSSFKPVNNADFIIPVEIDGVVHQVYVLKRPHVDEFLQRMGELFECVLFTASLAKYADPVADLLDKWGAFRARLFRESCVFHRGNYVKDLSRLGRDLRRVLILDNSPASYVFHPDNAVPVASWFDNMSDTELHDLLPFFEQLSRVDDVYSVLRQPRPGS

[7] = molecular target: T7, Histone-lysine N-methyltransferase NSD2 (Homo sapiens, UniProt O96028); type: biochemical
T7 sequence (O96028 whole entry): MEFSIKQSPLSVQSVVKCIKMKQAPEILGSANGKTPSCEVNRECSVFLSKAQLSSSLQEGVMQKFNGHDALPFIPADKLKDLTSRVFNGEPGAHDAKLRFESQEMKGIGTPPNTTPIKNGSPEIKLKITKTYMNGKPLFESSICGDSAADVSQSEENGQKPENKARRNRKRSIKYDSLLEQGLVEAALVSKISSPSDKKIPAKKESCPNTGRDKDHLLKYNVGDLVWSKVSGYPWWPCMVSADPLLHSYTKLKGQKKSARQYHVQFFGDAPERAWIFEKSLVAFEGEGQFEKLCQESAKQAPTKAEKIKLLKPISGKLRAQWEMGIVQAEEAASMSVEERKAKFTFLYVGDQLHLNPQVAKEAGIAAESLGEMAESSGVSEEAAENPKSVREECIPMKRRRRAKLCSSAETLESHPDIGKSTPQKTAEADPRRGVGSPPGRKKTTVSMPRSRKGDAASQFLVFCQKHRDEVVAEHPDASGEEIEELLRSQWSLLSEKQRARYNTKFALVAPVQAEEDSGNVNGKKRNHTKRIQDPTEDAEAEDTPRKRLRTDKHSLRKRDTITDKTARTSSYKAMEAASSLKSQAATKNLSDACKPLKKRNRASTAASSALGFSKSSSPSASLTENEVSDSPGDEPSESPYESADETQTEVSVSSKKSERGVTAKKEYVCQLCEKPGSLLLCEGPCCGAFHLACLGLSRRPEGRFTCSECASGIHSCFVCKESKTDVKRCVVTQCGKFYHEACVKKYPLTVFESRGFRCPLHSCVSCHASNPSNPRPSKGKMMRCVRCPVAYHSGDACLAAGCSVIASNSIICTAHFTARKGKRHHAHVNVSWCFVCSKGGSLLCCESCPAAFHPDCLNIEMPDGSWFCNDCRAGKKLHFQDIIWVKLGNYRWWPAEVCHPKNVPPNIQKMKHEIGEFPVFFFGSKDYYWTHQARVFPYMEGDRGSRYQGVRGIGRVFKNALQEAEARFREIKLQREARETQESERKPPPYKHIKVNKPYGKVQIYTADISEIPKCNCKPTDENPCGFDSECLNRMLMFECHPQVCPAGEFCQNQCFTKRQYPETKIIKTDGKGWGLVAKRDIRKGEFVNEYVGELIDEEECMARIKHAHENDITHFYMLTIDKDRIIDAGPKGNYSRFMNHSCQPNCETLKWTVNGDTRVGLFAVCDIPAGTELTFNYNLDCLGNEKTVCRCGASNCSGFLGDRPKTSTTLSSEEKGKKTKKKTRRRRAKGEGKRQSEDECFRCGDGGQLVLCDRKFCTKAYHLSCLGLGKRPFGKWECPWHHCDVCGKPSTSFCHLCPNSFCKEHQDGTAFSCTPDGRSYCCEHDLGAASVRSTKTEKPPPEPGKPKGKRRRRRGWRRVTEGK

[8] = molecular target: T8, Potassium channel subfamily K member 9 (Homo sapiens, UniProt Q9NPC2); assay: KCNK9 (TASK3) current inhibition by patch clamp, SAR follow-up, selectivity assay for TASK1 (KCNK3) inhibitor project, cell-based, automated electrophysiology (AID 652210); type: functional
T8 sequence (Q9NPC2 whole entry): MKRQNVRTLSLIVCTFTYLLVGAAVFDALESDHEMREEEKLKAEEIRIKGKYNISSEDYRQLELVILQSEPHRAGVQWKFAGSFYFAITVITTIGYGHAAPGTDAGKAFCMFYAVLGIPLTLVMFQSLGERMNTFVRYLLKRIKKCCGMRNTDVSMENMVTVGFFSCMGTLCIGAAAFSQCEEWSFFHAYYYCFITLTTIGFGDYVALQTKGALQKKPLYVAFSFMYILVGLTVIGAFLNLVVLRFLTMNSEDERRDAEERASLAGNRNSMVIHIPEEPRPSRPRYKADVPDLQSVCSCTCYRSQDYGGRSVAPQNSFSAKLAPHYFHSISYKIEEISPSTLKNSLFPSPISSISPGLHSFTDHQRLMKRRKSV

[9] = molecular target: T8, Potassium channel subfamily K member 9; assay: TASK3 (KCNK9) channel inhibitors, thallium flux, SAR follow-up, selectivity assay for TASK1 inhibitor project, cell-based, FluxOR thallium flux, concentration-response (AID 652211); type: functional;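 also: potency is for inhibitors of the channel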
[10] = molecular target: Potassium channel subfamily K member 3 (Rattus norvegicus, UniProt O54912); assay: SAR analysis for the identification of selective inhibitors of the two-pore domain potassium channel TASK1(KCNK3):Automated Electrophysiology.; type: functional
Potassium channel subfamily K member 3 (Rattus norvegicus, UniProt O54912), sequence (O54912 whole entry, the tested form may be a part): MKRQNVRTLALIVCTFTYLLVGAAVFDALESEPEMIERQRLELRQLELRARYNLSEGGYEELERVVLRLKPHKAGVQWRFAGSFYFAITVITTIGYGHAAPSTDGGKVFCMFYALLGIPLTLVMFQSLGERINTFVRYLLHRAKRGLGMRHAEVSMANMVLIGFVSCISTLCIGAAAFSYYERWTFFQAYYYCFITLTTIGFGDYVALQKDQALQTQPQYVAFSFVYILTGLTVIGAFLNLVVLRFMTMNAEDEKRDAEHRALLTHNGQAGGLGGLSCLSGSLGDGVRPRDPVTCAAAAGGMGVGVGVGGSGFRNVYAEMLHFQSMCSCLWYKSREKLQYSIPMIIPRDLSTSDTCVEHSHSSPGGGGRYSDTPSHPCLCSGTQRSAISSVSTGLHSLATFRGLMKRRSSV

[11] = molecular target: Potassium channel subfamily K member 3 (Homo sapiens, UniProt O14649); assay: TASK1 (KCNK3) potassium channel inhibitors, SAR follow-up, CHO cells, FluxOR thallium flux (AID 652212); type: functional
Potassium channel subfamily K member 3 (Homo sapiens, UniProt O14649), sequence (O14649 whole entry): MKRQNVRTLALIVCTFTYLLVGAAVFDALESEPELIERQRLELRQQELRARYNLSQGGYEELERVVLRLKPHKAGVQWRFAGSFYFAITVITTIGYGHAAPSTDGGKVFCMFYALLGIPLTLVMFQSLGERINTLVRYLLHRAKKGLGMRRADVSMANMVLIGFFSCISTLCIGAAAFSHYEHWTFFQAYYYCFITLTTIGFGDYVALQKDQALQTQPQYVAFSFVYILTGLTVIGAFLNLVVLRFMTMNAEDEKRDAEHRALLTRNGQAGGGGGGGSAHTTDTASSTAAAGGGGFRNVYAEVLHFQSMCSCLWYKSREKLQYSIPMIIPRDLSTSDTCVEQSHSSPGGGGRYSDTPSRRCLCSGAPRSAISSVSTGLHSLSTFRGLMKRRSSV

[12] = Dose-response inhibition of insulin secretion in a rat insulinoma line at 5 mM glucose (AID 1117331); type: functional, cell-based; conditions: INS-1E
[13] = Concentration-dependent survival of SW480 colon cancer line, luminescence detection with CellTiter-Glo, half-maximal inhibitory concentration (AID 1117338); type: functional
[14] = RKO cell viability reduction, dose response, CellTiter-Glo luminescence (AID 1117322); type: functional
[15] = cytotoxicity toward HCT116 cells – cell-based, CellTiter-Glo luminescence, IC50, dose response (AID 1117332); type: functional; conditions: HCT-116
[16] = SNU-C1 cell viability reduction, dose response, CellTiter-Glo luminescence (AID 1117323); type: functional, cell-based
[17] = cytotoxicity toward Colo320 cells – cell-based, CellTiter-Glo luminescence, IC50, dose response (AID 1117334); type: functional; conditions: COLO 320
[18] = cytotoxicity toward HT-29 cells – cell-based, CellTiter-Glo luminescence, IC50, dose response (AID 1117330); type: functional
[19] = CellTiter-Glo luminescent dose response of DLD-1 viability loss (AID 1117352); type: functional
[20] = HCT116 cell viability decrease, GSK3B pretreatment – CellTiter-Glo, IC50, dose response (AID 1117339); type: functional; conditions: HCT-116
[21] = HeLa 2N DNA content increase, dose response, cell-based, IC50 (AID 1117349); type: functional
[22] = HeLa 4N DNA content increase, dose response, cell-based, IC50 (AID 1117351); type: functional

Kallikrein-7, sequence (P49862 whole entry, the tested form may be a part): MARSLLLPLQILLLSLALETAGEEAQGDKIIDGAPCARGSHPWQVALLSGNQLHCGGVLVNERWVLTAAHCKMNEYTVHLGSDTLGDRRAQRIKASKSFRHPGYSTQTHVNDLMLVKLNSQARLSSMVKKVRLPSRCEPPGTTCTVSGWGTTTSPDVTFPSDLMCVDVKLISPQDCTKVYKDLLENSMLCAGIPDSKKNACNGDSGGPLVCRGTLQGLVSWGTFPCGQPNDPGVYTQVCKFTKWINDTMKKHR

COc1ccc(C2Nc3ccccc3C(=O)N2NC(C)=O)c(OC)c1 (stereo not drawn)
active: EC50 (Kallikrein-7) 9.55 µM

Cc1ccc(C2=Nc3ccccc3N=C(C(Cl)Cl)C2)cc1
inactive: EC50 [1] > 67.5 µM | EC50 (cells) > 67.5 µM

O=C(O)c1cccc(-n2cccc2/C=N/O)c1
> 10 µM (not active): IC50 [5]
> 300 µM (not active): EC50 [2] | EC50 [3]
active: IC50 (Bcl-2-like protein 10) 18.3 µM | IC50 [4] 91.6 µM | IC50 [6] 3.09 µM | AC50 [7] 12.2 µM
< 0.023 µM (not active): IC50 (Estrogen receptor beta)

CCOc1ccccc1C(=O)Nc1cccc(NC(=O)C2CCCC2)c1
active: IC50 [8] 0.49 µM | IC50 [9] 1.11 µM | IC50 [10] 0.03 µM | IC50 [11] 0.108 µM

CCCCN(CCCC)C(C(N)=O)c1ccc(OC)cc1 (stereo not drawn) [AMBUCETAMIDE]
inactive: IC50 [12] > 33.3 µM

CCOC(=O)c1ccccc1C(=O)OCC [DIETHYL PHTHALATE]
inactive: IC50 [13] > 20 µM | IC50 [14] > 20 µM | IC50 [15] > 20 µM | IC50 [16] > 20 µM | IC50 [17] > 20 µM | IC50 [18] > 20 µM | IC50 [19] > 20 µM | IC50 [20] > 20 µM

NCCCC[C@H](N[C@@H](CCc1ccccc1)C(=O)O)C(=O)N1CCC[C@H]1C(=O)O [LISINOPRIL]
active: IC50 [13] 4.03 µM | IC50 [15] 3.39 µM | IC50 [16] 2.53 µM | IC50 [19] 2.24 µM
inactive: IC50 [21] > 10 µM | IC50 [14] 8.88 µM | IC50 [17] > 20 µM | IC50 [22] > 10 µM | IC50 [18] > 6.67 µM
